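A five-concentration, 48-hour dose response in 96-well plates underlies each endpoint, interpolated linearly between surrounding concentrations. Here, GI50 denotes the concentration required for 50% inhibition of growth.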 Active and inactive are the calls of the source. No stated cut-off is given here; in the data, active = GI50 up to about 1.1 µM and inactive = higher.
Key:
Assay in all cases: growth of human tumour cells (NCI), 48 h
OVCAR-5 = system: OVCAR-5
SNB-75 = system: SNB-75
MOLT-4 = system: MOLT-4
OVCAR-8 = system: OVCAR-8
RPMI-8226 = system: RPMI-8226
HOP-92 = system: HOP-92
KM12 = system: KM12
CCRF-CEM = system: CCRF-CEM
SF-539 = system: SF-539
SK-MEL-5 = system: SK-MEL-5
IGROV-1 = system: IGROV-1
K562 = system: K562
EKVX = system: EKVX
UACC-257 = system: UACC-257
HT-29 = system: HT-29
ACHN = system: ACHN
M14 = system: M14
A549 = system: A549
NCI-H522 = system: NCI-H522

Measured: GI50

O=C(O)c1ccccc1NC(=O)C1CCCCC1
inactive: OVCAR-5 > 100 µM | SNB-75 > 100 µM | MOLT-4 > 100 µM | OVCAR-8 > 100 µM | RPMI-8226 > 100 µM | HOP-92 6.08 µM | KM12 > 100 µM | CCRF-CEM > 100 µM | SF-539 > 100 µM | SK-MEL-5 > 100 µM | IGROV-1 > 100 µM | K562 > 100 µM | EKVX > 100 µM | UACC-257 > 100 µM | HT-29 > 100 µM | ACHN > 100 µM | M14 > 100 µM | A549 > 100 µM

C[n+]1c(-c2ccc(/C=N/Nc3n[nH]c(=S)n3N/N=C/c3ccc(-c4cn5ccccc5[n+]4C)cc3)cc2)cn2ccccc21
inactive: OVCAR-5 > 100 µM | SNB-75 > 100 µM | MOLT-4 > 100 µM | OVCAR-8 > 100 µM | RPMI-8226 > 100 µM | KM12 > 100 µM | CCRF-CEM > 100 µM | SF-539 > 100 µM | SK-MEL-5 > 100 µM | IGROV-1 > 100 µM | K562 > 100 µM | EKVX > 100 µM | UACC-257 > 100 µM | NCI-H522 > 100 µM | HT-29 > 100 µM | ACHN > 100 µM | M14 > 100 µM | A549 > 100 µM

COC(=O)/C(=N\NC(=O)C[N+](C)(C)C)C(C(=O)OC)C(=O)C(=O)Nc1ccccc1C(N)=O (stereo not given)
inactive: OVCAR-5 > 100 µM | SNB-75 > 100 µM | MOLT-4 > 100 µM | RPMI-8226 > 100 µM | KM12 > 100 µM | CCRF-CEM > 100 µM | SF-539 > 100 µM | SK-MEL-5 > 100 µM | IGROV-1 > 100 µM | K562 > 100 µM | EKVX > 100 µM | UACC-257 > 100 µM | NCI-H522 > 100 µM | HT-29 > 100 µM | ACHN > 100 µM | M14 > 100 µM | A549 > 100 µM

C1=C2/CC[C@H](Sc3ccccc3)C2C2(CCCCC/1)OCCO2 (stereo not given in full)
inactive: SNB-75 23.9 µM | MOLT-4 16.6 µM | OVCAR-8 39.3 µM | RPMI-8226 17.6 µM | HOP-92 3.72 µM | KM12 26.5 µM | CCRF-CEM 28.6 µM | SF-539 41.8 µM | IGROV-1 27.9 µM | K562 24.7 µM | EKVX 32.9 µM | UACC-257 15.9 µM | HT-29 14.4 µM | ACHN 26.7 µM

COc1ccc2cc(C(=O)c3ccccc3C(=O)O)ccc2c1
inactive: OVCAR-5 > 100 µM | SNB-75 > 100 µM | MOLT-4 > 100 µM | OVCAR-8 > 100 µM | KM12 > 100 µM | CCRF-CEM > 100 µM | SK-MEL-5 > 100 µM | IGROV-1 > 100 µM | K562 > 100 µM | EKVX > 100 µM | UACC-257 > 100 µM | NCI-H522 > 100 µM | HT-29 > 100 µM | ACHN > 100 µM | M14 > 100 µM | A549 > 100 µM

CCCCCCCCCCCC(=O)OC(COC(N)=O)COc1ccc(Cl)cc1 (stereo not given)
inactive: SNB-75 33.4 µM | MOLT-4 23.7 µM | OVCAR-8 17.7 µM | RPMI-8226 22.1 µM | KM12 25.8 µM | CCRF-CEM 18.2 µM | SF-539 18.8 µM | SK-MEL-5 17.6 µM | IGROV-1 27.5 µM | K562 19.2 µM | EKVX 30.1 µM | UACC-257 19.1 µM | NCI-H522 17.1 µM | HT-29 20 µM | ACHN > 100 µM | M14 20.1 µM | A549 19.1 µM

Reference: ChEMBL document CHEMBL1201862, “PubChem BioAssay data set” (2004)
